Literature values, collected in patent US20250367153A1, “COMPOSITION AND APPLICATION THEREOF” (priority 2024, published 2025).

How the values were obtained:
[1] = system: rat, mouse, and guinea pig

In the case of O=CC=Cc1ccccc1 [cinnamaldehyde], the LD50 [1] is listed as 3400 mg/kg.

In the case of OCC=Cc1ccccc1 [cinnamyl alcohol], the LD50 [1] is listed as 2675 mg/kg.

For NCC(=O)O [glycine], the “NOAEL (no-observed-adverse-effect level)” value (rat) is given as “at least 2000 mg/kg/day”.

In the case of phosphatidylserine, the “acute oral LD50” value (rats and dogs; acute oral) is given as “greater than 5 g/kg bw” and the NOAEL (rats and dogs; rats and dogs) is given as 1,000 mg/kg bw/day.
